# From US9006191B2, “Silencing of polo-like kinase expression using interfering RNA” (Protiva Biotherapeutics, Inc., priority 2007, dated 2015)
# “And” between values parts separate entries of the source, which are not always exact repeats. Identical values can stand only once.
# Assays:
# IFN-α, IFIT1 mRNA = assay: In vivo immune stimulation assay in CD1 ICR mice (plasma IFN-α, IFIT1 mRNA); design: species or system mouse; settings: 1:57 PEG-cDMA SNALP, 3 mg/kg IV, 4 h
# Procedure: In vivo immune stimulation assays. Animal studies were performed to test for the immunostimulatory activity of SNALP containing 2′OMe-modified PLK1424 siRNAs. Six-week-old female CD1 ICR mice were used in this study. […] The tolerability of the treatment regime was monitored by animal appearance and behavior.
# [1] = system: anti-PEG-lipid IgG and IgM antibodies; assay: In vivo PEG-lipid antibody induction assay; design: species or system mouse; settings: CD1 ICR mice, 1:57 SNALP IV at Days 0, 7, 14; plasma Days 7, 14, 21
# Procedure: In vivo PEG-lipid antibody induction assays. Animal studies were performed to test for the induction of an antibody response to 2′OMe-modified PLK1424 siRNAs that were encapsulated in a 1:57 SNALP formulation containing the lipid conjugate PEG-cDMA. Six-week-old female CD1 ICR mice were used in this study. […] Mice were then sacrificed on Day 21. The tolerability of the treatment regime was monitored by animal appearance, behavior, and body weight. Anti-PEG-lipid IgG and IgM antibodies in plasma at Days 7, 14, and 21 were measured by ELISA.
# IFIT1 mRNA, serum IFNα [2] = assay: In vivo immune stimulation assay in Balb/c mice (IFIT1 mRNA, serum IFNα); settings: 2 mg/kg IV, 4 h
# Procedure: (§1) Balb/c mice (n=4 per group) were administered 2.5 mg/kg siRNA or lipid vehicle; serum IFNα (pg/mL) and IFIT1 mRNA (relative to GAPDH) from whole liver lysates were assessed after 4, 8, and 16 h by ELISA and bDNA assay, respectively. […] (b) Serum IFNα and (c) liver IFIT1 mRNA were assessed 4 h after administration (mean+SD, n=4).
# (§2) SNALP-formulated Luc (unmodified) and the 2′OMe-modified Luc-U/U, PLK1424-2/A, PLK773-1/B, or KSP2263-U/U siRNA were administered at 2 mg/kg i.v. to Balb/C mice. (A) IFIT1 relative to GAPDH mRNA in liver and spleen was assessed at 4 h by bDNA analysis. […] Serum IFNα was assessed at 6 h by ELISA. […] Values represent mean+SD (n=4).
# (§3) IFIT1 mRNA and serum cytokines were assessed 4-6 h after SNALP administration based on the approximate time of peak response for these markers. In these studies, SNALP-formulated native Luc siRNA (Table 6) was used as a positive control for immune stimulation.
# (§4) In vivo immune stimulation assays. […] 6-8 week old Balb/C mice were obtained from Harlan and subject to a two week acclimation period prior to use. Mice were administered SNALP formulated siRNA (2 mg/kg) in PBS via standard intravenous injection in the lateral tail vein. Blood was collected by cardiac puncture and processed as plasma for cytokine analysis. Liver and spleen were collected into RNALater (Sigma Co.) for IFIT1 mRNA analysis.
# (§5) Measurement of IFIT1 mRNA in mouse tissues. Murine liver and spleen were processed for bDNA assay to quantitate IFIT1 mRNA as described above. The IFIT1 probe set was specific to mouse IFIT1 mRNA (positions 4-499 of NM—008331) and the GAPDH probe set was specific to mouse GAPDH mRNA (positions 9-319 of NM—008084). Data is shown as the ratio of IFIT1 relative light units (RLU) to GAPDH RLU.
# (§6) Cytokine ELISA. All cytokines were quantified using sandwich ELISA kits. These were mouse interferon-α (PBL Biomedical; Piscataway, N.J.) and human and mouse IL-6 (BD Biosciences; San Diego, Calif.).
# IFIT1 mRNA, serum IFNα [3] = settings: mouse, in vivo, iv
# Procedure: as §1, §2, §3, §4, §5, §6
# Hep3B liver tumors = assay: Intrahepatic Hep3B tumor model (survival, body weight, tumor burden); type: in vivo; settings: Hep3B-nu/nu mouse model, 2 mg/kg twice weekly d11-d28
# Procedure: SNALP containing PLK-1 siRNA (“1:57” SNALP formulation: 1.4% PEG-cDMA; 57.1% DLinDMA; 7.1% DPPC; and 34.3% cholesterol) were tested for their effects on the survival of […] mice bearing Hep3B liver tumors.
# Intrahepatic tumor models. Liver tumors were established in mice by direct intrahepatic injection of Hep3B or Neuro2a tumor cells (45). Female scid/beige mice (Charles River Laboratories) and male A/J mice (Jackson Laboratories) were used as hosts for the Hep3B and Neuro2a tumors, respectively. Animals received Anafen by SC injection immediately prior to surgery. Individual mice were anaesthetized by isoflourane gas inhalation and eye lube applied to prevent excessive eye drying. While maintained under gas anaesthesia, a single 1.5 cm incision across the midline was made below the sternum and the left lateral hepatic lobe exteriorized. 1×10^6 Hep3B cells or 1×10^5 Neuro2a cells suspended in 25 μL PBS were injected slowly into the lobe at a shallow angle using a Hamilton syringe and 30G needle. A swab was then applied to the puncture wound to stop any bleeding prior to suturing. Mice were allowed to recover from anaesthesia in a sterile cage and monitored closely for 2-4 h before being returned to conventional housing.
# Eight to 11 days after tumor implantation, mice were randomized into treatment groups. siRNA SNALP formulations or PBS vehicle control were administered by standard intravenous injection via the lateral tail vein, calculated on a mg siRNA/kg basis according to individual animal weights (10 mL/kg injection volume). Body weights were then monitored throughout the duration of the study as an indicator of developing tumor burden and treatment tolerability. For efficacy studies, defined humane endpoints were determined as a surrogate for survival. Assessments were made by qualified veterinary technicians based on a combination of clinical signs, weight loss, and abdominal distension to define the day of euthanization due to tumor burden.
# Measurement of human PLK-1 and GAPDH mRNA in tumor tissues. Tumors were harvested directly into RNALater and stored at 4° C. until processing. 100 mg tumor tissue was homogenized in Tissue and Lysis Solution (EpiCentre Biotechnologies) containing […] proteinase K (EpiCentre) in a Fastprep tissue homogenizer followed by incubation in a 65° C. waterbath for 15 min and centrifuged to clarify lysates. mRNA analysis in FIG. 33B was performed on purified RNA isolated according the 5′-RACE-PCR protocol. Human PLK-1 and GAPDH mRNA were measured in tumor lystes by the QuantiGene bDNA assay (Panomics) as per the manufacturer's instructions (Quantigene 1.0 Manual). […] Data were expressed as mean PLK-1:GAPDH ratio+/−SD of individual animals. Tumor burden was assessed by homogenizing the complete liver from tumor bearing mice and measuring the total hGAPDH signal (RLU's) within the liver. Values were expressed as hGAPDH RLU/mg total liver.
# [4] = SNALP particle size and polydispersity; type: physicochemical
# hepatocellular carcinoma = settings: patients with advanced disease, phase III; cited from earlier work
compound,measurement,setting,value
"PLK1424 2/6: 2′OMe-modified PLK1424 siRNA, SEQ ID NO:400/403 (chain 1 AGANCACCCNCCUNAAANANU; chain 2 UAUUUAANGAGGGUNANCUNC; 2'-OMe modifications, chemistry not fully specified)",IFIT1 induction (QG analysis),"IFN-α, IFIT1 mRNA",no significant IFIT1 induction above that of empty SNALP
same,IgG / IgM antibody response against PEG-lipid (PEG-cDMA),[1],almost no detectable antibody responses against the PEG-lipid
"Luc: unmodified siRNA targeting luciferase, SEQ ID NO:231/232 (chain 1 GAUUAUGUCCGGUUAUGUAUU; chain 2 UACAUAACCGGACAUAAUCUU; unmodified RNA)",increase in IFIT1 mRNA in the liver compared to PBS,"IFIT1 mRNA, serum IFNα [2]",83 fold
same,increase in IFIT1 mRNA in the spleen compared to PBS,"IFIT1 mRNA, serum IFNα [2]",247 fold
same,serum IFNα / serum cytokine response,"IFIT1 mRNA, serum IFNα [3]",detection of systemic IFNα
same,"median survival, Study (A)",Hep3B liver tumors,67 days
same,"median survival, study (B)",Hep3B liver tumors,undefined
same,mean SNALP particle size,[4],90 nm and 82 nm and 72 nm
CNC(=O)c1cc(Oc2ccc(NC(=O)Nc3ccc(Cl)c(C(F)(F)F)c3)cc2)ccn1 [Sorafenib],survival time,hepatocellular carcinoma,10.7 mo
"PLK1424 2/4: 2′OMe-modified PLK1424 siRNA, SEQ ID NO:400/401 (chain 1 AGANCACCCNCCUNAAANANU; chain 2 UAUUUAANGAGGGUGANCUUC; 2'-OMe modifications, chemistry not fully specified)",IFIT1 induction (QG analysis),"IFN-α, IFIT1 mRNA",no significant IFIT1 induction above that of empty SNALP
same,IgG / IgM antibody response against PEG-lipid (PEG-cDMA),[1],almost no detectable antibody responses against the PEG-lipid
"PLK1424 2/3: 2′OMe-modified PLK1424 siRNA, SEQ ID NO:400/215 (chain 1 AGANCACCCNCCUNAAANANU; chain 2 UAUUUAANGAGGGUGANCUUU; 2'-OMe modifications, chemistry not fully specified)",IFIT1 induction (QG analysis),"IFN-α, IFIT1 mRNA",no significant IFIT1 induction above that of empty SNALP
same,IgG / IgM antibody response against PEG-lipid (PEG-cDMA),[1],almost no detectable antibody responses against the PEG-lipid
